In brackets after ≈: the same amount, converted by molar mass. Like-named read-outs stand apart in the source and are kept apart here.
Columns and labels:
[1] = test system: RAW 264.7 cells; assay: Cell viability assay (WST-1); format: cell-based, murine; details: for IC50: Mus musculus; for concentration at which cell viability was significantly decreased (cytotoxic): range tested 0–100 μg/mL; for effect on cell viability (in words): 0–100 μg/mL
Description: (§1) The RAW 264.7 cells were seeded at 1 × 10^6 cells/mL in 96-well tissue culture-treated plates for cell viability and nitric oxide assays. The seeded cells were incubated under standard tissue culture conditions at 37 °C in a humidified atmosphere of 5% CO2 for approximately 24 h until the cells reached 70–80% confluence. The cells were subsequently exposed to the relevant AuNP conjugates, total extract, or compounds. After that, the cells were either left unstimulated or stimulated with 1 μg/mL lipopolysaccharide (LPS, from E. coli O111:B4, Sigma-Aldrich) to yield a final concentration range of 0–100 μg/mL of the appropriate treatment. The cells were then incubated overnight under standard tissue culture conditions.
(§2) The supernatants were removed after incubation, and cells were washed with phosphate-buffered saline (PBS, Lonza). Cell viability was assessed by adding 50 μL of a 1/10 dilution of 2-(4-iodophenyl)-3-(4-nitrophenyl)-5-(2,4-disulfophenyl)-2H-tetrazolium (WST-1, Roche, Basel, Switzerland) in complete DMEM medium to each well. Metabolically active cells convert the WST-1 reagent to a formazan that can be measured spectrophotometrically. Formazan formation was determined by reading the plate at 450 nm immediately after adding WST-1 and again after an incubation period of 1 h at 37 °C. The increase in absorbance is proportional to formazan formation and directly proportional to cell viability. The difference between the zero-absorbance reading and 1 hr incubation was used to calculate the percentage of cell viability. Cell viability was calculated as a percentage of the control using the below formula:(1) Cell viability as a % of Control=T1−T0/U1−U0×100 where T1 is the absorbance of the treated sample after 1 h, T0 is the absorbance of the treated at 0 h, U1 is the absorbance of the untreated sample after 1h, and U0 is the absorbance of the untreated sample at 0 h.

[2] = Cell viability assay (WST-1); format: cell-based, murine; details: mouse, RAW 264.7 cells; −LPS, at concentrations ≥ 50 μg/mL; read-out: percentage of viable cells
Description: as §1, §2

[3] = test system: NO production, RAW 264.7 cells; assay: Nitric oxide (NO) assay (Griess reaction); format: cell-based, murine; details: for IC50: Mus musculus, RAW264.7, RAW 264.7, 1 μg/mL LPS, pure compound, ± SEM, read-out: Approximate NO IC50, +LPS, Comp.; for concentration at which NO production / inflammatory activity was reduced: non-toxic concentrations
Description: as §1
In the initial development of the assay, polymyxin inhibition of LPS inflammatory activity was checked. Polymyxin was established to inhibit LPS-induced inflammatory activity in macrophage cultures. Cell culture supernatants were removed after the overnight incubation with the relevant treatment. They were used to determine the amount of nitrite produced by the cells and used as an indication of NO production. The amount of NO produced was determined against a 0–100 μM nitrite standard range (Sigma-Aldrich). Culture supernatants or nitrite standard (50 μL) were mixed with 50 μL of Griess reagent (Sigma-Aldrich). The absorbance was subsequently read spectrophotometrically at 540 nm (Multiskan Ex, Thermo Electron Corporation, Vantaa, Finland), and the amount of NO produced by the cells was quantified. NO levels were not determined at cytotoxic concentrations.
The NO assay based on the Griess reaction was used to assess the production of NO from the RAW cells after the exposure to the NP extract/pure compounds in either the absence or presence of LPS.

[4] = test system: RAW 264.7 cell; design: method as in PMID 18295200, PMID 25871879; details: 0–1.6 μM or 0–200 μM, 24 h; cited from earlier work
[5] = test system: B65 neuroblastomas; design: method as in PMID 28970010; details: after 48 h; cited from earlier work
[6] = test system: PC12 cells; design: method as in PMID 19789989; details: PC12 cells in the presence of neuronal growth factor, 3- and 5-day periods; cited from earlier work
[7] = test system: human liver cells, HepG2; design: method as in PMID 31956937; details: concentrations ≥ 120 μM, 24 hrs; cited from earlier work
[8] = RAW264.7, RAW 264.7, 1 μg/mL LPS, pure compound/extract, overnight exposure, ± SEM, read-out: Approximate cell viability IC50, +LPS, Comp.
[9] = RAW264.7, RAW 264.7, unstimulated (−LPS), pure compound/extract, overnight exposure, ± SEM, read-out: Approximate cell viability IC50, −LPS, Comp.
[10] = RAW 264.7, absence of LPS (basal)

Row | IC50 [3] | Compound | IC50 [1, 8] | IC50 [1, 9] | concentration at which cell viability was significantly decreased (cytotoxic) [1, 10] | concentration at which cell viability was significantly decreased (cytotoxic) ([1]; RAW 264.7, presence of LPS) | effect on NO secretion (in words) [3, 10] | effect on NO secretion (in words) ([3]; RAW 264.7, presence of LPS) | other results
1 | ~27.5 µg/mL (≈ 84.8 µM) | CC1(C)C=Cc2c(ccc3c2OC[C@@H](c2ccc(O)cc2O)C3)O1 [Comp. 6, glabridin] | ~27.2 µg/mL (≈ 83.9 µM) | ~28.4 µg/mL (≈ 87.6 µM) | ≥ 50 µg/mL | ≥ 25 µg/mL | did not affect NO production | inhibited NO secretion | percentage viability ([1]; +LPS, at concentrations ≥ 25 μg/mL): 65 to 9%; concentration at which toxicity was seen ([1]; RAW 264.7, LPS status not stated): > 25 µg/mL; viability [2]: ≤ 30%; concentration at which NO production / inflammatory activity was reduced ([3]; RAW 264.7, presence of LPS): ≥ 12.5 µg/mL
2 |  | O=C(/C=C/c1ccc(O)cc1)c1ccc(O[C@@H]2O[C@H](CO)[C@@H](O)[C@H](O)[C@H]2O)cc1O [Comp. 3, neoisoliquiritin] |  |  |  |  | did not affect the level of NO | did not affect the level of NO | 
3 |  | isoliquiritin apioside [Comp. 4] |  |  |  |  | did not elicit an inflammatory response | did not impact NO secretion | cell viability reduced to ([1]; +LPS, 25 μg/mL): 60%; cell viability reduced to ([1]; +LPS, 50 μg/mL): 70%
4 |  | O=C(/C=C/c1ccc(O[C@@H]2O[C@H](CO)[C@@H](O)[C@H](O)[C@H]2O)cc1)c1ccc(O)cc1O [Comp. 2, isoliquiritin] |  |  | 100 µg/mL |  | did not affect the level of NO |  | effect on cell viability (in words) ([1]; RAW 264.7, presence of LPS): no cytotoxicity was exhibited; effect on cell viability (in words) ([1]; RAW 264.7, presence of LPS, listed as Isoliquiritin (2)): no effect on viability; effect on cell viability (in words) ([1]; RAW 264.7, presence of LPS, listed as isoliquiritin (2)): did not hinder cell proliferation; effect on RAW 264.7 cell viability (in words) [4]: not affected; concentration at which viability was reduced [5]: 100 µM
5 | ~16.5 µg/mL (≈ 39.4 µM) | O=C1C[C@@H](c2ccc(O[C@@H]3O[C@H](CO)[C@@H](O)[C@H](O)[C@H]3O)cc2)Oc2cc(O)ccc21 [Comp. 1, liquiritin] | ~60.5 µg/mL (≈ 145 µM) | ~39.7 µg/mL (≈ 94.9 µM) | 50 to 100 µg/mL | 50 to 100 µg/mL | did not elicit NO secretion | inhibited NO secretion | concentration at which cell viability decreased [6]: ≥ 50 µg/mL; concentration at which cell viability was significantly decreased (cytotoxic) ([1]; RAW 264.7, absence of LPS (basal), listed as liquiritin (1)): ≥ 50 µg/mL; concentration at which NO production / inflammatory activity was reduced ([3]; RAW 264.7, presence of LPS, listed as Compound 1): 25 µg/mL; concentration at which NO production / inflammatory activity was reduced ([3]; RAW 264.7, presence of LPS, listed as liquiritin): ≥ 25 µg/mL; HepG2 viability [7]: below 40%
6 |  | liquiritin apioside [Comp. 5] |  |  |  |  |  |  | concentration at which cell viability was increased (mitogenic effect) ([1]; RAW 264.7, presence of LPS): 25 µg/mL; Approximate cell viability IC50, −LPS, Comp. ([1]; RAW 264.7, unstimulated (−LPS), pure compound/extract, overnight exposure, ± SEM): 47.8 ± 0.2 µg/mL; cell viability reduced to ([1]; −LPS, 100 μg/mL): 40%; reduction of cell viability ([1]; −LPS, at concentrations ≥ 50 μg/mL): 40%

From paper PMC11051159, “Green Synthesis of Gold Nanoparticles Using Liquiritin and Other Phenolics from Glycyrrhiza glabra and Their Anti-Inflammatory Activity” (Journal of Functional Biomaterials, 2024)
